Results: patent US20110136762A1, “FUNGICIDAL PYRIDAZINES” (E.I. Du Pont de Nemours and Company, priority 2008, published 2011)
Marks after values point to notes of the source that are not given here.

Columns and labels:
Format in all cases: in vivo
[1] = system: Puccinia recondita f. sp. tritici; assay: Test B: wheat leaf rust, preventive spray on wheat seedlings, visual disease rating; conditions: 100 = 100% disease control, 0 = no disease control relative to controls; for pest or weed control at 200 ppm / pest or weed control at 40 ppm: 192 h
Source text: General protocol for preparing test suspensions for Tests A-F: […] The resulting test suspensions were then used in Tests A-F. The test suspensions were sprayed to the point of run-off on the test plants. All results are for 200 ppm (equivalent to a rate of 500 g/ha) except where followed by “*” which indicates 40 ppm. The test suspension was sprayed to the point of run-off on wheat seedlings. The following day the seedlings were inoculated with a spore suspension of Puccinia recondita f. sp. tritici (the causal agent of wheat leaf rust) and incubated in a saturated atmosphere at 20° C. for 24 h, and then moved to a growth chamber at 20° C. for 7 days, after which time visual disease ratings were made. […] A dash (-) indicates no test results. All results are for 200 ppm except where followed by “*”, which indicates 40 ppm.

Botrytis cinerea = assay: Test F: tomato Botrytis, preventive spray on tomato seedlings, visual disease rating; conditions: 100 = 100% disease control, 0 = no disease control relative to controls; for pest or weed control at 200 ppm / pest or weed control at 40 ppm: Botrytis cinerea
Source text: General protocol for preparing test suspensions for Tests A-F: […] The resulting test suspensions were then used in Tests A-F. The test suspensions were sprayed to the point of run-off on the test plants. All results are for 200 ppm (equivalent to a rate of 500 g/ha) except where followed by “*” which indicates 40 ppm. The test suspension was sprayed to the point of run-off on tomato seedlings. The following day the seedlings were inoculated with a spore suspension of Botrytis cinerea (the causal agent of tomato Botrytis) and incubated in saturated atmosphere at 20° C. for 48 h, and then moved to a growth chamber at 24° C. for 3 days, after which time visual disease ratings were made. […] A dash (-) indicates no test results. All results are for 200 ppm except where followed by “*”, which indicates 40 ppm.

Septoria nodorum = assay: Test D: wheat glume blotch, preventive spray on wheat seedlings, visual disease rating; conditions: 100 = 100% disease control, 0 = no disease control relative to controls; for pest or weed control at 200 ppm / pest or weed control at 40 ppm: Parastagonospora nodorum
Source text: General protocol for preparing test suspensions for Tests A-F: […] The resulting test suspensions were then used in Tests A-F. The test suspensions were sprayed to the point of run-off on the test plants. All results are for 200 ppm (equivalent to a rate of 500 g/ha) except where followed by “*” which indicates 40 ppm. The test suspension was sprayed to the point of run-off on wheat seedlings. The following day the seedlings were inoculated with a spore suspension of Septoria nodorum (the causal agent of wheat glume blotch) and incubated in a saturated atmosphere at 20° C. for 48 h, and then moved to a growth chamber at 20° C. for 7 days, after which time visual disease ratings were made. […] A dash (-) indicates no test results. All results are for 200 ppm except where followed by “*”, which indicates 40 ppm.

Erysiphe graminis = assay: Test A: wheat powdery mildew, preventive spray on wheat seedlings, visual disease rating; conditions: 100 = 100% disease control, 0 = no disease control relative to controls; for pest or weed control at 200 ppm / pest or weed control at 40 ppm: Blumeria graminis, 192 h
Source text: General protocol for preparing test suspensions for Tests A-F: […] The resulting test suspensions were then used in Tests A-F. The test suspensions were sprayed to the point of run-off on the test plants. All results are for 200 ppm (equivalent to a rate of 500 g/ha) except where followed by “*” which indicates 40 ppm. The test suspension was sprayed to the point of run-off on wheat seedlings. The following day the seedlings were inoculated with a spore dust of Erysiphe graminis, (the causal agent of wheat powdery mildew) and incubated in a growth chamber at 20° C. for 8 days, after which time visual disease ratings were made. […] A dash (-) indicates no test results. All results are for 200 ppm except where followed by “*”, which indicates 40 ppm.

Alternaria solani = assay: Test E: tomato early blight, preventive spray on tomato seedlings, visual disease rating; conditions: 100 = 100% disease control, 0 = no disease control relative to controls; for pest or weed control at 200 ppm / pest or weed control at 40 ppm: Alternaria solani
Source text: General protocol for preparing test suspensions for Tests A-F: […] The resulting test suspensions were then used in Tests A-F. The test suspensions were sprayed to the point of run-off on the test plants. All results are for 200 ppm (equivalent to a rate of 500 g/ha) except where followed by “*” which indicates 40 ppm. The test suspension was sprayed to the point of run-off on tomato seedlings. […] A dash (-) indicates no test results. All results are for 200 ppm except where followed by “*”, which indicates 40 ppm.

Septoria tritici = assay: Test C: wheat leaf blotch, preventive spray on wheat seedlings, visual disease rating; conditions: 100 = 100% disease control, 0 = no disease control relative to controls; for pest or weed control at 200 ppm / pest or weed control at 40 ppm: Zymoseptoria tritici, 504 h
Source text: General protocol for preparing test suspensions for Tests A-F: […] The resulting test suspensions were then used in Tests A-F. The test suspensions were sprayed to the point of run-off on the test plants. All results are for 200 ppm (equivalent to a rate of 500 g/ha) except where followed by “*” which indicates 40 ppm. The test suspension was sprayed to the point of run-off on wheat seedlings. The following day the seedlings were inoculated with a spore suspension of Septoria tritici (the causal agent of wheat leaf blotch) and incubated in saturated atmosphere at 20° C. for 48 h, and moved to a growth chamber at 20° C. for 19 additional days, after which time visual disease ratings were made. […] A dash (-) indicates no test results. All results are for 200 ppm except where followed by “*”, which indicates 40 ppm.

Structure (SMILES) | pest or weed control at 200 ppm (Botrytis cinerea; 200 ppm) | pest or weed control at 200 ppm (Septoria nodorum; 200 ppm) | pest or weed control at 200 ppm (Alternaria solani; 200 ppm) | pest or weed control at 40 ppm ([1]; 40 ppm (marked *)) | pest or weed control at 40 ppm (Botrytis cinerea; 40 ppm (marked *)) | pest or weed control at 40 ppm (Septoria nodorum; 40 ppm (marked *)) | pest or weed control at 40 ppm (Erysiphe graminis; 40 ppm (marked *)) | pest or weed control at 40 ppm (Alternaria solani; 40 ppm (marked *)) | pest or weed control at 40 ppm (Septoria tritici; 40 ppm (marked *)) | also measured
COc1cc(OC)cc(-c2c(-c3cc(F)c(F)cc3F)cnnc2-c2ccccc2F)c1 [Compound 27, 4-(3,5-dimethoxyphenyl)-3-(2-fluorophenyl)-5-(2,4,5-trifluorophenyl)pyridazine] | 100% | 84% | 99% |  |  |  |  |  |  | pest or weed control at 200 ppm ([1]; 200 ppm): 100%; pest or weed control at 200 ppm (Erysiphe graminis; 200 ppm): 89%; pest or weed control at 200 ppm (Septoria tritici; 200 ppm): 99%
COc1cc(OC)cc(-c2c(-c3ccccc3F)nnc(C)c2-c2c(F)cc(OC)cc2F)c1 [Compound 28, 4-(2,6-difluoro-4-methoxyphenyl)-5-(3,5-dimethoxyphenyl)-6-(2-fluorophenyl)-3-methylpyridazine] |  |  |  | 100% | 100% | 100% | 85% | 100% | 97% | 
COc1cc(OC)cc(-c2c(-c3ccccc3F)nnc(C)c2-c2c(F)cc(OCCCN(C)C)cc2F)c1 [Compound 29, 3-[4-[5-(3,5-dimethoxyphenyl)-6-(2-fluorophenyl)-3-methyl-4-pyridazinyl]-3,5-difluorophenoxy]-N,N-dimethyl-1-propanamine] | 99% | 92% | 99% |  |  |  |  |  |  | pest or weed control at 200 ppm ([1]; 200 ppm): 100%; pest or weed control at 200 ppm (Erysiphe graminis; 200 ppm): 92%; pest or weed control at 200 ppm (Septoria tritici; 200 ppm): 98%
CNCCCOc1cc(F)c(-c2c(C)nnc(-c3ccccc3F)c2-c2cc(OC)cc(OC)c2)c(F)c1 [Compound 30, 3-[4-[5-(3,5-dimethoxyphenyl)-6-(2-fluorophenyl)-3-methyl-4-pyridazinyl]-3,5-difluorophenoxy]-N-methyl-1-propanamine] | 100% | 98% | 98% |  |  |  |  |  |  | pest or weed control at 200 ppm ([1]; 200 ppm): 100%; pest or weed control at 200 ppm (Erysiphe graminis; 200 ppm): 89%; pest or weed control at 200 ppm (Septoria tritici; 200 ppm): 99%
COc1cc(OC)c(Cl)c(-c2c(-c3ccccc3F)nnc(C)c2-c2c(F)cc(F)cc2F)c1 [Compound 31, 4-(2-chloro-3,5-dimethoxyphenyl)-3-(2-fluorophenyl)-6-methyl-5-(2,4,6-trifluorophenyl)pyridazine] |  |  |  | 100% | 100% | 100% | 97% | 100% | 99% | 
COc1cc(OC)c(Br)c(-c2c(-c3ccccc3F)nnc(C)c2-c2c(F)cc(F)cc2F)c1 [Compound 32] |  |  |  |  |  |  |  |  |  | Test B rating (disease control, wheat leaf rust) ([1]; 40 ppm (marked *)): 100* %; Test F rating (disease control, tomato Botrytis) (Botrytis cinerea; 40 ppm (marked *)): 100* %; Test D rating (disease control, wheat glume blotch) (Septoria nodorum; 40 ppm (marked *)): 99* %; Test A rating (disease control, wheat powdery mildew) (Erysiphe graminis; 40 ppm (marked *)): 90* %; Test E rating (disease control, tomato early blight) (Alternaria solani; 40 ppm (marked *)): 99* %; Test C rating (disease control, wheat leaf blotch) (Septoria tritici; 40 ppm (marked *)): 98* %
COc1cc(-c2c(-c3ccccc3F)nnc(C)c2-c2c(F)cc(F)cc2F)cc(OC)c1Cl [Compound 33] |  |  |  |  |  |  |  |  |  | Test B rating (disease control, wheat leaf rust) ([1]; 40 ppm (marked *)): 97* %; Test F rating (disease control, tomato Botrytis) (Botrytis cinerea; 40 ppm (marked *)): 99* %; Test D rating (disease control, wheat glume blotch) (Septoria nodorum; 40 ppm (marked *)): 0* %; Test A rating (disease control, wheat powdery mildew) (Erysiphe graminis; 40 ppm (marked *)): 0* %; Test E rating (disease control, tomato early blight) (Alternaria solani; 40 ppm (marked *)): 61* %; Test C rating (disease control, wheat leaf blotch) (Septoria tritici; 40 ppm (marked *)): 95* %
COc1cc(OC)cc(-c2c(-c3ccccc3)nnc(Cl)c2-c2c(F)cc(F)cc2F)c1 [Compound 34] |  |  |  |  |  |  |  |  |  | Test B rating (disease control, wheat leaf rust) ([1]; 200 ppm): 100%; Test F rating (disease control, tomato Botrytis) (Botrytis cinerea; 200 ppm): 100%; Test D rating (disease control, wheat glume blotch) (Septoria nodorum; 200 ppm): 93%; Test A rating (disease control, wheat powdery mildew) (Erysiphe graminis; 200 ppm): 99%; Test E rating (disease control, tomato early blight) (Alternaria solani; 200 ppm): 99%; Test C rating (disease control, wheat leaf blotch) (Septoria tritici; 200 ppm): 100%
COc1cc(OC)cc(-c2c(-c3ccccc3)nnc(C)c2-c2c(F)cc(F)cc2F)c1 [Compound 35, 4-(3,5-dimethoxyphenyl)-6-methyl-3-phenyl-5-(2,4,6-trifluorophenyl)pyridazine] | 99% | 95% | 99% | 100% |  |  | 90% |  | 100% | 
COc1cc(OC)c(Cl)c(-c2c(-c3ccccc3)nnc(C)c2-c2c(F)cc(F)cc2F)c1 [Compound 36, 4-(2-chloro-3,5-dimethoxyphenyl)-6-methyl-3-phenyl-5-(2,4,6-trifluorophenyl)pyridazine] |  |  |  | 99% | 99% | 100% | 98% | 99% | 99% | 
COc1cc(OC)cc(-c2c(-c3ccccc3)nnc(C)c2-c2c(F)cc(OC)cc2F)c1 [Compound 37, 5-(2,6-difluoro-4-methoxyphenyl)-4-(3,5-dimethoxyphenyl)-6-methyl-3-phenylpyridazine] |  |  |  | 100% | 99% | 99% | 69% | 99% | 98% | 
COc1cc(OC)cc(-c2c(-c3ccccc3F)nnc(Cl)c2-c2c(F)cc(F)c([Si](C)(C)C)c2F)c1 [Compound 38, 3-chloro-5-(3,5-dimethoxyphenyl)-6-(2-fluorophenyl)-4-[2,4,6-trifluoro-3-(trimethylsilyl)phenyl]pyridazine] |  |  |  | 98% | 99% | 0% | 0% | 26% | 94% | 
Fc1cncc(-c2c(-c3ccccc3F)nnc(Cl)c2-c2c(F)cc(F)cc2F)c1 [Compound 39] |  |  |  |  |  |  |  |  |  | Test B rating (disease control, wheat leaf rust) ([1]; 40 ppm (marked *)): 100* %; Test F rating (disease control, tomato Botrytis) (Botrytis cinerea; 40 ppm (marked *)): 100* %; Test D rating (disease control, wheat glume blotch) (Septoria nodorum; 40 ppm (marked *)): 100* %; Test A rating (disease control, wheat powdery mildew) (Erysiphe graminis; 40 ppm (marked *)): 100* %; Test E rating (disease control, tomato early blight) (Alternaria solani; 40 ppm (marked *)): 100* %; Test C rating (disease control, wheat leaf blotch) (Septoria tritici; 40 ppm (marked *)): 100* %
